# Laboratory results from US20030171386A1, “Small molecules for the treatment of abnormal cell growth” (Pfizer Inc., priority 2001, published 2003).
# Key:
# [1] = clinical trials, patients; cited from earlier work
# human EGFR = molecular target: T1, human EGFR (Homo sapiens, UniProt P00533); test: erbB1 receptor autophosphorylation, in vitro cell assay in transfected 3T3 cells, used for the erbB2 versus erbB1 selectivity ratio; assay type: cell-based; settings: comparison of IC50 for EGFR transfectant vs. erbB2/EGFR chimera transfectant
# T1 construct: expressed in transfected cells; host or cells: 3T3 cells
# Procedure: The in vitro activity of small molecule compounds as erbB kinase inhibitors in intact cells may be determined by the following procedure. […] The cells are incubated at 37° C. for 2 h. EGF (40 ng/ml final) is added to each well and cells incubate at room temperature for 15 min followed by aspiration of medium, then 100 μl/well cold fixative (50% ethanol/50% acetone containing 200 micromolar sodium orthovanadate) is added. The plate is incubated for 30 min at room temperature followed by washing with wash buffer (0.5% Tween 20 in phosphate buffered saline). Blocking buffer (3% bovine serum albumin, 0.05% Tween 20, 200 μM sodium orthovanadate in phosphate buffered saline, 100 μl/well) is added followed by incubation for 2 hours at room temperature followed by two washes with wash buffer. PY54 monoclonal anti-phosphotyrosine antibody directly conjugated to horseradish peroxidase (50 μl/well, 1 μg/ml in blocking buffer) or blocked conjugate (1 μg/ml with 1 mM phosphotyrosine in blocking buffer, to check specificity) is added and the plates incubated for 2 hours at room temperature. The plate wells are then washed 4 times with wash buffer. The colorimetric signal is developed by addition of TMB Microwell Peroxidase Substrate (Kirkegaard and Perry, Gaithersburg, Md.), 50 μl per well, and stopped by the addition of 0.09 M sulfuric acid, 50 μl per well. […] The increase in signal in EGF-treated cells over control (non-EGF treated) represents the activity of the EGFR or EGFR/chimera respectively. […] The selectivity of the compounds for erbB2 vs. EGFR is determined by comparison of the IC50 for the EGFR transfectant vs. that for the erbB2/EGFR chimera transfectant.
# (§1) The IC50 values for the inhibition of erbB1 receptor autophosphorylation and erbB2 receptor autophophorylation were determined using the in vitro cell assays described above.
# [2] = molecular target: T2, chimeric EGFR/erbB2 kinase (Homo sapiens, UniProt P04626); test: erbB2 receptor autophosphorylation, in vitro cell assay in transfected 3T3 cells; assay type: cell-based; settings: intact 3T3 cells transfected with chimeric EGFR/erbB2 kinase; EGF-stimulated phosphotyrosine; read-out: Potency (IC50) for the erbB2 receptor
# T2 construct: EGFR extracellular/erbB2 intracellular; expressed in transfected cells; host or cells: 3T3 cells; the other entry of the earlier key: EGFR (P00533, Epidermal growth factor receptor)
# Procedure: The in vitro activity of small molecule compounds as erbB kinase inhibitors in intact cells may be determined by the following procedure. Cells, for example 3T3 cells transfected with human EGFR (Cohen et al. J. Virology 67:5303, 1993) or with chimeric EGFR/erbB2 kinase (EGFR extracellular/erbB2 intracellular, Fazioli et al. Mol. Cell. Biol. 11: 2040, 1991) are plated in 96-well plates at 12,000 cells per well in 100 μl medium (Dulbecco's […] (DMEM) with 5% fetal calf serum, 1% pen/streptomycin, 1% L-glutamine) and incubated at 37° C., 5% CO2 Test compounds are solubilized in DMSO at a concentration of 10 mM, and tested at final concentrations of 0, 0.3 μM, 1 μM, […], 0.1 μM and 10 μM in the medium. The cells are incubated at 37° C. for 2 h. EGF (40 ng/ml final) is added to each well and cells incubate at room temperature for 15 min followed by aspiration of medium, then 100 μl/well cold fixative (50% ethanol/50% acetone containing 200 micromolar sodium orthovanadate) is added. The plate is incubated for 30 min at room temperature followed by washing with wash buffer (0.5% Tween 20 in phosphate buffered saline). Blocking buffer (3% bovine serum albumin, 0.05% Tween 20, 200 μM sodium orthovanadate in phosphate buffered saline, 100 μl/well) is added followed by incubation for 2 hours at room temperature followed by two washes with wash buffer. PY54 monoclonal anti-phosphotyrosine antibody directly conjugated to horseradish peroxidase (50 μl/well, 1 μg/ml in blocking buffer) or blocked conjugate (1 μg/ml with 1 mM phosphotyrosine in blocking buffer, to check specificity) is added and the plates incubated for 2 hours at room temperature. The plate wells are then washed 4 times with wash buffer. The colorimetric signal is developed by addition of TMB Microwell Peroxidase Substrate (Kirkegaard and Perry, Gaithersburg, Md.), 50 μl per well, and stopped by the addition of 0.09 M sulfuric acid, 50 μl per well. Absorbance at 450 nm represents phosphotyrosine content of proteins. The increase in signal in EGF-treated cells over control (non-EGF treated) represents the activity of the EGFR or EGFR/chimera respectively. The potency of an inhibitor is determined by measurement of the concentration of compound needed to inhibit the increase in phosphotyrosine by 50% (IC50) in each cell line. The selectivity of the compounds for erbB2 vs. EGFR is determined by comparison of the IC50 for the EGFR transfectant vs. that for the erbB2/EGFR chimera transfectant. Thus, for example, a compound with an IC50 of 100 nM for the EGFR transfectant and 10 nM for the erbB2/EGFR chimera transfectant is considered 10-fold selective for erbB2 kinase.
# as §1
# [3] = tested on: another carcinoma, which does not express the EGF receptor; settings: carcinoma not expressing the EGF receptor; cited from earlier work
# [4] = tested on: transplanted human mammary carcinoma, which expresses epidermal growth factor receptor tyrosine kinase (EGFR); settings: EGFR-expressing human mammary carcinoma in athymic nude mice; cited from earlier work
# T1 sequence (P00533 25-1210): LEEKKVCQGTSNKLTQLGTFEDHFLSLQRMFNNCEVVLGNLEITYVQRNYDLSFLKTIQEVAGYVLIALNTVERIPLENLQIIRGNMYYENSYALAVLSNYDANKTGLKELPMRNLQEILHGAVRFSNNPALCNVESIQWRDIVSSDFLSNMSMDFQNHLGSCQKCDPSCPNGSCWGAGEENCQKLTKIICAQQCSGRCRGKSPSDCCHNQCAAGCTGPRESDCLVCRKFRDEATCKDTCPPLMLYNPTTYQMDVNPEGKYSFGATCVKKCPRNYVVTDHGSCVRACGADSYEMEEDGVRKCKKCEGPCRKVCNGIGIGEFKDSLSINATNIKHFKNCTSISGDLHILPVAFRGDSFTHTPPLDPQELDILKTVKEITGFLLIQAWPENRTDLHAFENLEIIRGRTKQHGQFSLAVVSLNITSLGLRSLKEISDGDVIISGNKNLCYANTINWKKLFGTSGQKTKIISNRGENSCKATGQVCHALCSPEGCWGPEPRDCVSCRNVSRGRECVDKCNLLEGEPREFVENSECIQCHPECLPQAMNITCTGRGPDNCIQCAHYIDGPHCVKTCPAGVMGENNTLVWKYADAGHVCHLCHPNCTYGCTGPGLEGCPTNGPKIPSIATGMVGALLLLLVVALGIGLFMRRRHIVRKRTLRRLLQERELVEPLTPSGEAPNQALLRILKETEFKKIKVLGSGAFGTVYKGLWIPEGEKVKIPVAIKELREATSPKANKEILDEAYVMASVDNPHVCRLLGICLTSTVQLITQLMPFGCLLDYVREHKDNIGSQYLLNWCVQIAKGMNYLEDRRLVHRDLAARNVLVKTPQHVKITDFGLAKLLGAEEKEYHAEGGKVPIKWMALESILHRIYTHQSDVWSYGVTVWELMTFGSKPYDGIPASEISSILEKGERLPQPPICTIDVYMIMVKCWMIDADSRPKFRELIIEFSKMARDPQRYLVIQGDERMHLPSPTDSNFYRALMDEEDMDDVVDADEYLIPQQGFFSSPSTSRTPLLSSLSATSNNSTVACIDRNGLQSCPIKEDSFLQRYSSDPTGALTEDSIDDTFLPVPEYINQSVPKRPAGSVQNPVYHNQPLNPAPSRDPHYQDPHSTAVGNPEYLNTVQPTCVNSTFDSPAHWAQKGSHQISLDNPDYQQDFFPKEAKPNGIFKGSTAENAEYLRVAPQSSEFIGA
# T2 sequence (P04626 720-1255 limits assumed, change not shown): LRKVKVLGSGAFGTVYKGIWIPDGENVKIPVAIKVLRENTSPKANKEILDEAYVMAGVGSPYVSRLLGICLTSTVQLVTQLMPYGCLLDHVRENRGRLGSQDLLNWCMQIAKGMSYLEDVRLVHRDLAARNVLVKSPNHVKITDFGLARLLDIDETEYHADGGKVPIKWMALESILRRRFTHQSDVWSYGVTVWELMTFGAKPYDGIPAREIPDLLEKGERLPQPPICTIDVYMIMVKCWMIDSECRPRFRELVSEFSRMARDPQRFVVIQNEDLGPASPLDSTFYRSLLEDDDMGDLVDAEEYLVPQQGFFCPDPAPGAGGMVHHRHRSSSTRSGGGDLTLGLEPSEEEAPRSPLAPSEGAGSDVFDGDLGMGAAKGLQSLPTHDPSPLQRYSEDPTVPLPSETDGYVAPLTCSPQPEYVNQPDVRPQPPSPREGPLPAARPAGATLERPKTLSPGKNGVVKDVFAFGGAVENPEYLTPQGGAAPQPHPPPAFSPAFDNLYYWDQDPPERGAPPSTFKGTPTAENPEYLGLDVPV
Structure (SMILES),erbB2/erbB1 ratio (selectivity) (human EGFR),IC50 [2],dermal toxicity (rash) [1],tumor growth [3],tumor growth [4]
C=CC(=O)Nc1cc2c(Nc3ccc(F)c(Cl)c3)ncnc2cc1OCCCN1CCOCC1 [CI-1033],–,–,dermal toxicity in the form of a rash occurs,–,–
"C#Cc1cccc(Nc2ncnc3cc(OCCOC)c(OCCOC)cc23)c1 [CP-358,774]",–,–,this adverse event was observed,–,–
CCOc1cc2ncc(C#N)c(Nc3ccc(F)c(Cl)c3)c2cc1NC(=O)/C=C/CN(C)C [EKB-569],–,–,dermal toxicity in the form of a rash occurs,–,–
"CC(=O)C(=O)NCC#Cc1ccc2ncnc(Nc3cnc(Oc4ccccc4)c(C)c3)c2c1 [Example 1, N-{3-[4-(5-Methyl-6-phenoxy-pyridin-3-ylamino)-quinazolin-6-yl]-prop-2-ynyl}-2-oxo-propionamide]",101,< 20 nM,–,–,–
"Cc1cc(Nc2ncnc3ccc(/C=C/CNC(=O)C4CC4)cc23)ccc1Oc1cccnc1 [Example 2, E-Cyclopropanecarboxylic acid (3-{4-[3-methyl-4-(pyridin-3-yloxy)-phenylamino]-quinazolin-6-yl}-allyl)-amide]",658,21 to 50 nM,–,–,–
"COCC(=O)NCC#Cc1ccc2ncnc(Nc3ccc(Oc4cccc(OC)c4)c(C)c3)c2c1 [Example 3, 2-Methoxy-N-(3-{4-[4-(3-methoxy-phenoxy)-3-methyl-phenylamino]-quinazolin-6-yl}-prop-2-ynyl)-acetamide]",103,21 to 50 nM,–,–,–
"Cc1ccc(Oc2ccc(Nc3ncnc4ccc(/C=C/CNC(=O)C5CC5)cc34)cc2Cl)cn1 [Example 4, E-Cyclopropanecarboxylic acid (3-{4-[3-chloro-4-(6-methyl-pyridin-3-yloxy)-phenylamino]-quinazolin-6-yl}-allyl)-amide]",142,21 to 50 nM,–,–,–
"CC(=O)NC/C=C/c1ccc2ncnc(Nc3ccc(Oc4ccc(C)nc4)c(Cl)c3)c2c1 [Example 5, E-N-(3-{4-[3-Chloro-4-(6-methyl-pyridin-3-yloxy)-phenylamino]-quinazolin-6-yl}-allyl)-acetamide]",108,21 to 50 nM,–,–,–
COc1cc2ncnc(Nc3ccc(F)c(Cl)c3)c2cc1OCCCN1CCOCC1 [ZD1839],–,–,this adverse event was observed,–,–
O=CN/C=C/c1cc(O)ccc1O [erbstatin],–,–,–,without effect on the growth,selectively attenuates the growth

# Second part, led by results:
erbB2/erbB1 ratio (selectivity) (human EGFR),IC50 [2],Structure (SMILES),dermal toxicity (rash) [1],tumor growth [3],tumor growth [4]
437,< 20 nM,"Cc1ccc(Oc2ccc(Nc3ncnc4ccc(/C=C/CNC(=O)c5cc(C)on5)cc34)cc2C)cn1 [Example 6, E-5-Methyl-isoxazole-3-carboxylic acid (3-{4-[3-methyl-4-(6-methyl-pyridin-3-yloxy)-phenylamino]-quinazolin-6-yl}-allyl)-amide]",–,–,–
1133,21 to 50 nM,"COC(=O)NC/C=C/c1ccc2ncnc(Nc3ccc(Oc4cccnc4)c(C)c3)c2c1 [Example 7, E-(3-{4-[3-Methyl-4-(pyridin-3-yloxy)-phenylamino]-quinazolin-6-yl}-allyl)-carbamic acid methyl ester]",–,–,–
308,51 to 100 nM,"COC1CCN(C(=O)NC(C)(C)C#Cc2ccc3ncnc(Nc4ccc(Oc5ccc(C)nc5)c(C)c4)c3c2)C1 (centres unmarked) [Example 8, 3-Methoxy-pyrrolidine-1-carboxylic acid (1,1-dimethyl-3-{4-[3-methyl-4-(6-methyl-pyridin-3-yloxy)-phenylamino]-quinazolin-6-yl}-prop-2-ynyl)-amide]",–,–,–
116,21 to 50 nM,"COCC(=O)NC/C=C/c1ccc2ncnc(Nc3ccc(Oc4ccc(C)nc4)c(C)c3)c2c1 [Example 9, E-2-Methoxy-N-(3-{4-[3-methyl-4-(6-methyl-pyridin-3-yloxy)-phenylamino]-quinazolin-6-yl}-allyl)-acetamide]",–,–,–
112,21 to 50 nM,"CCNC(=O)NCC#Cc1ccc2ncnc(Nc3ccc(Oc4cccnc4)c(C)c3)c2c1 [Example 10, 1-Ethyl-3-(3-{4-[3-methyl-4-(pyridin-3-yloxy)-phenylamino]-quinazolin-6-yl}-prop-2-ynyl)-urea]",–,–,–
122,21 to 50 nM,"Cc1ccc(Oc2ccc(Nc3ncnc4ccc(/C=C/CNC(=O)C5CC5)cc34)cc2C)cn1 [Example 11, E-Cyclopropanecarboxylic acid (3-{4-[3-methyl-4-(6-methyl-pyridin-3-yloxy)-phenylamino]-quinazolin-6-yl}-allyl)-amide]",–,–,–
121,21 to 50 nM,"CCNC(=O)NCC#Cc1ccc2ncnc(Nc3ccc(Oc4cccnc4)c(Cl)c3)c2c1 [Example 12, 1-(3-{4-[3-Chloro-4-(pyridin-3-yloxy)-phenylamino]-quinazolin-6-yl}-prop-2-ynyl)-3-ethyl-urea]",–,–,–
182,< 20 nM,"Cc1cc(Nc2ncnc3ccc(C#CCNC(=O)CN(C)C)cc23)ccc1Oc1cccnc1 [Example 13, 2-Dimethylamino-N-(3-{4-[3-methyl-4-(pyridin-3-yloxy)-phenylamino]-quinazolin-6-yl}-prop-2-ynyl)-acetamide]",–,–,–
196,21 to 50 nM,"Cc1cc(Nc2ncnc3ccc(C#CC4CCNCC4)cc23)ccc1Oc1cccnc1 [Example 14, [3-Methyl-4-(pyridin-3-yloxy)-phenyl]-(6-piperidin-4-ylethynyl-quinazolin-4-yl)-amine]",–,–,–
140,51 to 100 nM,"COC(=O)NCC#Cc1ccc2ncnc(Nc3ccc(Oc4cccnc4)c(C)c3)c2c1 [Example 15, (3-{4-[3-Methyl-4-(pyridin-3-yloxy)-phenylamino]-quinazolin-6-yl}-prop-2-ynyl)-carbamic acid methyl ester]",–,–,–
216,21 to 50 nM,"Cc1ccc(Oc2ccc(Nc3ncnc4ccc(C#CCNC(=O)c5cc(C)no5)cc34)cc2C)cn1 [Example 16, 3-Methyl-isoxazole-5-carboxylic acid (3-{4-[3-methyl-4-(6-methyl-pyridin-3-yloxy)-phenylamino]-quinazolin-6-yl}-prop-2-ynyl)-amide]",–,–,–
